In assay [1] the target is T1, L-type calcium channel (LTCC) subunits (α1c, α2δ, and β1) (Rattus norvegicus, UniProt P22002).
T1 construct: expressed in transfected cells; pcDNA6.2DEST for α1c, pcDNA3.2DEST for β1, pcDNA3.1-Zeo for α2δ
Nature of the assay: FLIPR calcium mobilization assay for L-type calcium channel (HEK293 cells expressing recombinant rat LTCC subunits). It is filed as cell-based. Particulars: calcium mobilization in vitro assay, L-type calcium channel blockers. The procedure: Recombinant human embryonal kidney cells (HEK293, ATCC) stably transfected with either N-type calcium channel (NTCC) subunits (α1b, α2δ, and β3) or L-type calcium channel (LTCC) subunits (α1c, α2δ, and β1) were routinely cultured in growth medium consisting of Dulbecco's Modified Eagles Medium containing 10% FBS, 100 U/mL penicillin, 100 μg/mL streptomycin, 4 mM L-glutamine, 500 μg/mL geneticin (G418), 20 μg/mL Blasticidin S (InVivogen, San Diego, Calif.) and 500 μg/mL zeocin (InVivogen).
FLIPR Calcium Mobilization Assay for L-type Calcium Channel. One day prior to performing this assay, HEK293 cells stably expressing recombinant rat L-type calcium channel (LTCC) subunits (α1c, α2δ, and β1) were trypsinized, then seeded on poly-D-lysine-coated 96-well clear-bottom black plates (Becton Dickinson, Franklin Lakes, N.J.) at 75,000 cells/well. On the day of the assay, the plates were washed with LTCC wash buffer (127 mM NaCl, 2 mM MgCl2, 700 μM NaH2PO4, […], 5 mM NaHCO3, 8 mM HEPES, 10 mM glucose, pH 7.4), then loaded with 0.1 mL of LTCC wash buffer containing Fluo-4 (3 μM final concentration, Molecular Probes, Eugene, Oreg.). After 1 hour, the cells were washed with 0.1 mL LTCC wash buffer and resuspended in 0.05 mL LTCC assay buffer (same composition as LTCC wash buffer). Plates were then transferred to a FLIPR^96 for assay. The FLIPR measured basal Fluo-4 fluorescence for 15 seconds, then added 0.05 mL of each compound tested diluted in LTCC assay buffer at final concentrations ranging from about 846 pM to about 17 μM. Fluo-4 fluorescence was then measured for 5 minutes. 0.1 mL KCl agonist dissolved in LTCC assay buffer was then added to the cells to produce a final concentration of 90 mM KCl, and fluorescence was measured for another 45 seconds. Data were collected over the entire time course and analyzed using Excel, Graph Pad Prism, or an in-house regression analysis software.
Cloning of N- and L-type calcium channel subunit open reading frame cDNAs. Five cDNAs encoding subunits of the rat N- or L-type calcium channels were cloned by PCR amplification in order to reconstitute functional channels in a heterologous system. These were the alpha1b (α1b), beta1 (β1), beta3 (β3), alpha2delta (α2δ), and alpha1c (α1c) subunit cDNAs. The alpha1b subunit cDNA has been described by Dubel et al. in Proc. Natl. Acad. Sci. U.S.A 89: 5058-5062 (1992). The beta1 subunit cDNA has been described by Pragnell et al. in FEBS Lett. 291: 253-258 (1991). The beta3 subunit cDNA has been described by Castellano et al. in J. Biol. Chem. 268: 12359-12366 (1993). The alpha2delta subunit cDNA has been described by Kim et al. in Proc. Natl. Acad. Sci. U.S.A. 89: 3251-3255 (1992). The alpha1c subunit cDNA has been described by Koch et al. in J. Biol. Chem. 265: 17786-17791 (1990).
The 6.5 kb cDNA encoding the L-type calcium channel α1c subunit was cloned by PCR amplification from rat heart cDNA using primers 11 (SEQ ID NO: 11, TABLE 1) and 12 (SEQ ID NO:12, TABLE 1). The PCR fragment was subcloned and fully sequenced on both strands to confirm its identity. A clone matching consensus reference sequence M59786 and rat genomic DNA sequences was recombined into the mammalian expression vector pcDNA6.2DEST. Sequences around the recombinogenic region were sequenced to confirm accurate recombination into the expression vector.
L-type Recombinant Cell Line Development. L-type calcium channel expressing HEK-293 cells were created in two stages. Stage 1 was created as follows. The rat α1c, and β1 cDNA expression constructs (2.5 μg each) were co-transfected into human embryonic kidney (HEK-293) cells by Lipofectamine Plus reagent (Invitrogen), as per manufacturer's instructions. 24 hours later, cells were split in limiting dilution into multiple 96-well plates in selection media containing 20 μg/mL blasticidin and 500 μg/mL geneticin, and incubated for 3 weeks at 37° C., 5% CO2, 95% humidity. […]
For orientation: A change in cytosolic calcium serves as a functional read-out for many receptors and channels.

In assay [2] the target is T2, N-type calcium channel (NTCC) (Homo sapiens, UniProt Q00975).
T2 construct: host or cells: IMR32 cells differentiated with dibutyryl cAMP and bromodeoxyuridine
T2 sequence (Q00975 whole entry): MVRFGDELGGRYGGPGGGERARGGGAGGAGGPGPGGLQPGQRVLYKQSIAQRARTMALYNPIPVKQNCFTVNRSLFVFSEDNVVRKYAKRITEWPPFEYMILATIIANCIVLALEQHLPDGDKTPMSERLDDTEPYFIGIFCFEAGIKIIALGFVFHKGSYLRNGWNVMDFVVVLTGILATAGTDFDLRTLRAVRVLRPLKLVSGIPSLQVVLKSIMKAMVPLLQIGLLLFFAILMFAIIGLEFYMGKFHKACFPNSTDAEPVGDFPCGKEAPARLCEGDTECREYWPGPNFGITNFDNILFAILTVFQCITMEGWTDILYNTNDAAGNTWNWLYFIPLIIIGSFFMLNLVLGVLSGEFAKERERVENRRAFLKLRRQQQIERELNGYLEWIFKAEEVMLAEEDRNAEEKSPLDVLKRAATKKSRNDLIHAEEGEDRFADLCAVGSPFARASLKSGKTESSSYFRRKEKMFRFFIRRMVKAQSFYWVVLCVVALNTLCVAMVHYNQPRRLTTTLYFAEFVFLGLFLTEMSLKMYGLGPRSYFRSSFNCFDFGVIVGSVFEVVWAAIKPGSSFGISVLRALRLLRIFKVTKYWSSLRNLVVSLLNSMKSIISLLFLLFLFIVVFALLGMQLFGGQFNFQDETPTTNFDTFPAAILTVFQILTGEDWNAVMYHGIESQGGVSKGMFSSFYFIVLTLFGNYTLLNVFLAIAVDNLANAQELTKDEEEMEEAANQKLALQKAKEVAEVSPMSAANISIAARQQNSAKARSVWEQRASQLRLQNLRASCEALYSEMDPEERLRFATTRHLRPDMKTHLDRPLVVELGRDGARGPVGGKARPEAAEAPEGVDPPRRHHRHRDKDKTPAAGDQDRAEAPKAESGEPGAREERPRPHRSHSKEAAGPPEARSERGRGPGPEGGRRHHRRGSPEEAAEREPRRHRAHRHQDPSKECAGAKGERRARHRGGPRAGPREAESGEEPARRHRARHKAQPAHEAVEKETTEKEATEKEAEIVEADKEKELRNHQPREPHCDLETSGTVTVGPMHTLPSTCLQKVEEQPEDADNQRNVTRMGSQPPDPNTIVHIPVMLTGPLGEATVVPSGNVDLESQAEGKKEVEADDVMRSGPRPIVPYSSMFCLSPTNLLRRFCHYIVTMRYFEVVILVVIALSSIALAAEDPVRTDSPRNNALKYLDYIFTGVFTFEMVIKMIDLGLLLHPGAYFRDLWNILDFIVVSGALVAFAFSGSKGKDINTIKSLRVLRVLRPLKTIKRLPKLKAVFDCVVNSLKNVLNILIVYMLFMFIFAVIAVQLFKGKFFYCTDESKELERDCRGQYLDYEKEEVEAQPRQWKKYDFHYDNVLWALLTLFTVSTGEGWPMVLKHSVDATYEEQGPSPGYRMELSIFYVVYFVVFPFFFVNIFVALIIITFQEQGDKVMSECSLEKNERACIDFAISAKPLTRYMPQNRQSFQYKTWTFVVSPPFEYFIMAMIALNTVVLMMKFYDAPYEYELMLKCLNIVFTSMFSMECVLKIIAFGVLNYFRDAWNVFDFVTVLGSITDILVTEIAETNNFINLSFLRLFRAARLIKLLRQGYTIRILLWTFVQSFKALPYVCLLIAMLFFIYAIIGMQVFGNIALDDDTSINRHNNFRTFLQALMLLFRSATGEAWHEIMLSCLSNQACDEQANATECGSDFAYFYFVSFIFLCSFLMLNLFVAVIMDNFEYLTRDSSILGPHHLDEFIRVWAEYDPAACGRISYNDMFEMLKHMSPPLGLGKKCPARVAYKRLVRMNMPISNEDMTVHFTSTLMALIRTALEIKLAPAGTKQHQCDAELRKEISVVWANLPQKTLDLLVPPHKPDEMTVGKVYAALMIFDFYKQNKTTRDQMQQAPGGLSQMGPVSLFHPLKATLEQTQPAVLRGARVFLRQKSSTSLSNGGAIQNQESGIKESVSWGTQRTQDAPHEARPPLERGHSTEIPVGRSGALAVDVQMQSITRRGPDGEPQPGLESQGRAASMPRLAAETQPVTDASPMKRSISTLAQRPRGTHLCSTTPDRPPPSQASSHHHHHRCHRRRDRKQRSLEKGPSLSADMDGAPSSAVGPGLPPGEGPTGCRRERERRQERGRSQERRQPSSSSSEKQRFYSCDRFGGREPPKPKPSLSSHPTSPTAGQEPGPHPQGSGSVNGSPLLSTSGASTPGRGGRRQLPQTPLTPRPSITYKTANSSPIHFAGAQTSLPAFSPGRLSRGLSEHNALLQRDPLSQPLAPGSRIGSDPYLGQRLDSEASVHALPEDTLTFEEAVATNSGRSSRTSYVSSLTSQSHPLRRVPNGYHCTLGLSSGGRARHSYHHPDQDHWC
Nature of the assay: FLIPR calcium mobilization assay for N-type calcium channel (differentiated IMR32 cells). It is filed as cell-based. An outline of the steps: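 Human IMR32 cells differentiated 8 days (1 mM dibutyryl cAMP, 2.5 μM BrdU), pre-stimulated 1 h with 90 mM KCl plus compound (~846 pM–17 μM) and 5 μM nitrendipine, Fluo-4 loaded. FLIPR read basal fluorescence 315 s, then 90 mM KCl agonist added and fluorescence recorded 45 s; non-linear regression.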

Setting [3] is: calcium mobilization in vitro assay, N-type calcium channel blockers.
[4] abbreviates: about 1.0 μM or less, calcium mobilization and/or electrophysiological assay.

We go through 22 compounds from patent US20090298878A1, “OXIME COMPOUNDS AND THE USE THEREOF” (priority 2006, published 2009).

Where a name gives a salt, the structure may show the parent alone. Bounds are passed on as bounds.

T1 sequence (P22002 whole entry): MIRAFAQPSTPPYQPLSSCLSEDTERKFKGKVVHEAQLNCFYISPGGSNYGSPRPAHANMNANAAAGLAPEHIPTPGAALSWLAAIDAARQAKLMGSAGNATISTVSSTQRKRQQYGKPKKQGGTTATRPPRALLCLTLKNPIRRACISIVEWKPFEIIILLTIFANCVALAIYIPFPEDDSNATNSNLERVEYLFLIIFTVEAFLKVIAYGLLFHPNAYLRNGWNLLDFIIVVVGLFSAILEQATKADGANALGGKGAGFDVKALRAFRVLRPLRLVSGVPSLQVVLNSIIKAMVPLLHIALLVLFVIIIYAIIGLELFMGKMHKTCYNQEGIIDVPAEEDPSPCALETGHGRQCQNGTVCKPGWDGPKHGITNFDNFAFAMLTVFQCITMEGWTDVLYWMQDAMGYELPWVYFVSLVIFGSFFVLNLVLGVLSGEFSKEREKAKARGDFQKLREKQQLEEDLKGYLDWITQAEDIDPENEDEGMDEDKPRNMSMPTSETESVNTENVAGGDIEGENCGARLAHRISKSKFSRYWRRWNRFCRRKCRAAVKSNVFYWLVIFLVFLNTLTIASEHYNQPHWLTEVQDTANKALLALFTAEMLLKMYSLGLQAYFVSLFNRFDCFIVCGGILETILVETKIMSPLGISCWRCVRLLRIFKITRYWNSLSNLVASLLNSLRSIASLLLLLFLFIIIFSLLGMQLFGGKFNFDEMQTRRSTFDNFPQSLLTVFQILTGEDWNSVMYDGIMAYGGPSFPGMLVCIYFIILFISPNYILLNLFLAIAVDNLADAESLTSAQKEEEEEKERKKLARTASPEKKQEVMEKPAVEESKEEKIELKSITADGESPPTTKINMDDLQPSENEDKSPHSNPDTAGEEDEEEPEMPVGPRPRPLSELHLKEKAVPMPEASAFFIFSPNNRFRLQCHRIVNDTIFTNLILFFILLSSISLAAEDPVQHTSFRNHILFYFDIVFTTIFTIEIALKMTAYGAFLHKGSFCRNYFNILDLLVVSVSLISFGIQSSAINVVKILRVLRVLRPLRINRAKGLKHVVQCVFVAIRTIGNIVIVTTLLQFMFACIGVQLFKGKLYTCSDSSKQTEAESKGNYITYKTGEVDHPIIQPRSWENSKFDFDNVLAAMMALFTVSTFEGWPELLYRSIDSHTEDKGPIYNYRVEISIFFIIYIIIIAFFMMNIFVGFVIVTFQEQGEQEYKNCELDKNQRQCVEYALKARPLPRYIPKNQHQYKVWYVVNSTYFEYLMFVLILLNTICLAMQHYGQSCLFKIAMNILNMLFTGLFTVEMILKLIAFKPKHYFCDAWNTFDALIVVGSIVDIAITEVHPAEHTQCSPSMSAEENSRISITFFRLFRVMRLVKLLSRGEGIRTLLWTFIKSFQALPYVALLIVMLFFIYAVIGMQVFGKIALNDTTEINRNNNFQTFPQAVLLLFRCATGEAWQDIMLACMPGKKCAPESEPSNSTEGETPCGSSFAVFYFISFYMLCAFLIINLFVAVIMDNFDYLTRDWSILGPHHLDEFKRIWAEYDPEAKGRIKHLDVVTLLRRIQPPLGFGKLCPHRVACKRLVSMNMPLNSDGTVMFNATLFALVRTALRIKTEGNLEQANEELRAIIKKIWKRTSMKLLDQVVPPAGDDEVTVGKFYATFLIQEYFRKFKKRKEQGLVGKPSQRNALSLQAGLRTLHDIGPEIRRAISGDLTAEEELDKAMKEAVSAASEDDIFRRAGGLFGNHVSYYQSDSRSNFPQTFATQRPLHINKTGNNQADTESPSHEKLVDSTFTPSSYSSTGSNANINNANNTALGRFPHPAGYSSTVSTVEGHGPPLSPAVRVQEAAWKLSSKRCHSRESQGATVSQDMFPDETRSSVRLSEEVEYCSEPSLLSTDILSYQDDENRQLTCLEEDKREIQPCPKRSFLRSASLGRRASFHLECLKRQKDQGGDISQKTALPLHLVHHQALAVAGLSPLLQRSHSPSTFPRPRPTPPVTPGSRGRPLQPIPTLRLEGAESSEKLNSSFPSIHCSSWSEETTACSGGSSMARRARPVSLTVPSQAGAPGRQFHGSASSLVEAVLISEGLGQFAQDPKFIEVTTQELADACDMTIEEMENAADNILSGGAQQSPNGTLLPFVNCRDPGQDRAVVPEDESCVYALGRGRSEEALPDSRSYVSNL

Turning to `O=S(=O)(c1cccc(C(F)(F)F)c1)N1CCC(=NOCC2CCCCC2)CC1` [Example 277, 1-(3-(Trifluoromethyl)phenylsulfonyl)piperidin-4-one O-cyclohexylmethyl oxime], the concentration for half-maximal inhibition (IC50) (usually the point on the concentration scale where inhibition reaches its midpoint) in assay [1] was > 20000 nM; in assay [2] (setting [3]), 610 nM. The corresponding values for `CCCCc1ccc(S(=O)(=O)N2CCC(=NOCc3cccc(C(F)(F)F)c3)CC2)cc1` [Example 50, 1-(4-Butyl-benzenesulfonyl)piperidin-4-one O-(3-trifluoromethylbenzyl)oxime] are > 20000 nM and 430 nM. For the compound `N#Cc1cc(CON=C2CCN(C(c3ccc(F)cc3)c3ccc(F)cc3)CC2)ccc1F` [Example 182, 5-((1-(Bis(4-fluorophenyl)methyl)piperidin-4-ylideneaminooxy)methyl)-2-fluorobenzonitrile hydrochloride], the concentration for half-maximal inhibition (IC50) was > 20000 nM in assay [1] and 690 nM in assay [2] (setting [3]). With `Fc1ccc(C(CCCN2CCC(=NOCc3cccnc3)CC2)c2ccc(F)cc2)cc1` [Example 16, 1-[4,4-Bis-(4-fluorophenyl)butyl]piperidin-4-one O-pyridin-3-ylmethyloxime dioxalate], the IC50 in assay [1] is 6600 nM; in assay [2] (setting [3]) it was 260 nM.

Take `CCCCc1ccc(S(=O)(=O)N2CCC(=NOCc3cccc(C#N)c3)CC2)cc1` [Example 77, 3-[1-(4-Butylbenzenesulfonyl)piperidin-4-ylideneaminooxymethyl]benzonitrile]: the figures for the IC50 in assay [1] and in assay [2] (setting [3]) were > 20000 nM and 220 nM, respectively. For `O=c1ccc(CON=C2CCN(S(=O)(=O)c3ccc(OC(F)(F)F)cc3)CC2)cn1Cc1ccc(F)cc1` [Example 295, 1-(4-Fluorobenzyl)-5-((1-(4-(trifluoromethoxy)phenylsulfonyl)piperidin-4-ylideneaminooxy)methyl)pyridin-2(1H)-one], in that order: > 20000 nM and 160 nM. The corresponding values for `O=S(=O)(c1ccc(OC(F)(F)F)cc1)N1CCC(=NOCc2nc3cc(Cl)cnc3[nH]2)CC1` [Example 308, 1-(4-(Trifluoromethoxy)phenylsulfonyl)piperidin-4-one O-(6-chloro-3H-imidazo[4,5-b]pyridin-2-yl)methyl oxime] are > 20000 nM and 360 nM. The corresponding values for `O=C(CCC(c1ccc(F)cc1)c1ccc(F)cc1)N1CCC(=NOCc2ccncc2)CC1` [Example 19, 1-[4,4-Bis-(4-fluorophenyl)butyryl]piperidin-4-one O-pyridin-4-ylmethyloxime oxalate] are 4900 nM and 760 nM. As for `CCCCCC(C)ON=C1CCN(S(=O)(=O)c2cccc(C(F)(F)F)c2)CC1` (centres unmarked) [Example 369, 1-(3-(Trifluoromethyl)phenylsulfonyl)piperidin-4-one O-heptan-2-yl oxime], the IC50 was > 20000 nM in assay [1] and 80 nM in assay [2] (setting [3]). For `Fc1ccc(C(CCCN2CCC(=NOCc3cccc(C(F)(F)F)c3)CC2)c2ccc(F)cc2)cc1` [Example 12, 1-[4,4-Bis-(4-fluorophenyl)butyl]piperidin-4-one O-(3-trifluoromethylbenzyl)oxime oxalate], in that order: > 20000 nM and 820 nM. The corresponding values for `CC(C)C[C@H](N)C(=O)N1CCC(=NOCc2cccc(C(F)(F)F)c2)CC1` [Example 8, 1-((S)-2-Amino-4-methylpentanoyl)piperidin-4-one O-(3-trifluoromethylbenzyl)oxime hydrochloride] are 9600 nM and 690 nM. Take `CN[C@@H](CC(C)C)C(=O)N1CCC(=NOCc2ccc(Cl)cc2)CC1` [Example 4, 1-((S)-4-Methyl-2-methylaminopentanoyl)piperidin-4-one O-(4-chlorobenzyl)oxime hydrochloride]: the IC50 is 15200 nM in assay [1] and 860 nM in assay [2] (setting [3]). `O=C(CCC(c1ccc(F)cc1)c1ccc(F)cc1)N1CCC(=NOCc2ccc(C(F)(F)F)cc2)CC1` [Example 30, 1-[4,4-Bis-(4-fluorophenyl)butyryl]piperidin-4-one O-(4-trifluoromethylbenzyl)oxime]: the IC50 is > 20000 nM in assay [1] and 330 nM in assay [2] (setting [3]). In the case of `O=S(=O)(c1ccc(OC(F)(F)F)cc1)N1CCC(=NOCc2ccccc2-c2ccccc2)CC1` [Example 311, 1-(4-(Trifluoromethoxy)phenylsulfonyl)piperidin-4-one O-biphenyl-2-ylmethyl oxime], the 50% inhibitory concentration (IC50) in assay [2] (setting [4]) was ≤ 1000 nM. The same measure, in the same setting: next, `O=S(=O)(c1cccc(C(F)(F)F)c1)N1CCC(=NOCCC2CCCCC2)CC1` [Example 294, 1-(3-(Trifluoromethyl)phenylsulfonyl)piperidin-4-one O-2-cyclohexylethyl oxime]: ≤ 1000 nM; `O=S(=O)(c1ccc(OC(F)(F)F)cc1)N1CCC(=NOCc2nc3ccccc3[nH]2)CC1` [Example 162, 1-(4-(Trifluoromethoxy)phenylsulfonyl)piperidin-4-one O-(1H-benzo[d]imidazol-2-yl)methyl oxime]: ≤ 1000 nM; `N#Cc1cccc(C(ON=C2CCN(S(=O)(=O)c3ccc(OC(F)(F)F)cc3)CC2)c2cccnc2)c1` (centres unmarked) [Example 270, 3-(Pyridin-3-yl(1-(4-(trifluoromethoxy)phenylsulfonyl)piperidin-4-ylideneaminooxy)methyl)benzonitrile]: ≤ 1000 nM.

Take `COc1cc(CON=C2CCN(S(=O)(=O)c3ccc(OC(F)(F)F)cc3)CC2)cc(Cl)n1` [Example 147, 1-(4-Trifluoromethoxybenzenesulfonyl)piperidin-4-one O-(2-chloro-6-methoxypyridin-4-ylmethyl)oxime]: the half-maximal inhibitory concentration (IC50) in assay [2] (setting [4]) was ≤ 1000 nM. Still for that read-out and setting: the result for `N#Cc1cccc(CON=C2CCN(S(=O)(=O)c3ccc(F)cc3)CC2)c1` [Example 196] reads ≤ 1000 nM. Same read-out and setting: the result for `CC(C)CCON=C1CCN(S(=O)(=O)c2cccc(C(F)(F)F)c2)CC1` [Example 366, 1-(3-(Trifluoromethyl)phenylsulfonyl)piperidin-4-one O-isopentyl oxime] reads ≤ 1000 nM. The same measure, in the same setting: next, `CCCCc1ccc(S(=O)(=O)N2CCC(=NOCc3ccc(Cl)cc3)CC2)cc1` [Example 72, 1-(4-Butylbenzenesulfonyl)piperidin-4-one O-(4-chlorobenzyl)oxime]: ≤ 1000 nM; `O=c1ccc(C(ON=C2CCN(S(=O)(=O)c3ccc(OC(F)(F)F)cc3)CC2)c2ccc(F)cc2)c[nH]1` (centres unmarked) [Example 214, 5-((4-Fluorophenyl)(1-(4-(trifluoromethoxy)phenylsulfonyl)piperidin-4-ylideneaminooxy)methyl)pyridin-2(1H)-one]: ≤ 1000 nM.
